{
  "source": "ChEMBL document CHEMBL5500403",
  "about": "“Discovery of a Double-Stapled Short Peptide as a Long-Acting HIV-1 Inactivator with Potential for Oral Bioavailability” (J Med Chem, 2024)",
  "key": {"[1]": {"experiment": "Drug concentration in Sprague-Dawley rat plasma at 10 mg/kg,iv administrated upto 8 days by LC-MS/MS analysis", "type": "ADME, organism-based", "settings": "in vivo, 192 h, time < 8 day"}, "[2]": {"tested_on": "Human immunodeficiency virus 1", "experiment": "Binding affinity to cytoplasmic LLP1 domain of HIV-1 GP41 by ELISA"}, "[3]": {"experiment": "Toxicity in female BALB/c mouse assessed as change in body weight at 100 mg/kg,iv administration measured upto 14 days", "type": "organism-based", "settings": "in vivo, 336 h, time < 14 day"}, "[4]": {"experiment": "Toxicity in Sprague-Dawley rat assessed as necrosis in kidney at 50 mg/kg,iv administration measured after 14 days by hematoxylin and eosin staining based assay", "type": "organism-based", "settings": "in vivo, 336 h, time 14 day"}, "[5]": {"tested_on": "Human immunodeficiency virus 1", "experiment": "Binding affinity to cytoplasmic LLP1 domain of HIV-1 GP41 assessed as binding constant by isothermal titration calorimetry"}, "[6]": {"experiment": "Plasma protein binding in human by LC-MS/MS analysis", "type": "ADME, cell-free", "settings": "read-out: PPB (converted)"}, "[7]": {"tested_on": "Human immunodeficiency virus 1", "experiment": "Antiviral activity against HIV-1 Bal-R5 assessed as reduction in viral growth by measuring p24 antigen level incubated for 2 hrs by ELISA", "type": "functional, organism-based", "settings": "Human immunodeficiency virus 1, Bal-R5, 2 h"}, "[8]": {"experiment": "Volume of distribution at steady state in Sprague-Dawley rat at 10 mg/kg,iv administration measured upto 9 days by LC-MS/MS analysis", "type": "ADME, organism-based", "settings": "in vivo, 216 h, time < 9 day"}, "[9]": {"tested_on": "Human immunodeficiency virus 1", "experiment": "Antiviral activity against HIV-1 clinical isolate X4-89BZ167 assessed as reduction in viral growth by measuring p24 antigen level incubated for 2 hrs by ELISA", "type": "functional, organism-based", "settings": "Human immunodeficiency virus 1, clinical isolate X4-89BZ167, 2 h"}, "[10]": {"experiment": "Toxicity in Sprague-Dawley rat assessed as cell degeneration in liver at 50 mg/kg,iv administration measured after 14 days by hematoxylin and eosin staining based assay", "type": "organism-based", "settings": "in vivo, 336 h, time 14 day"}, "[11]": {"experiment": "Apparent permeability in human Caco-2 cells at 5 uM", "type": "ADME, cell-based"}, "[12]": {"tested_on": "Human immunodeficiency virus 1", "experiment": "Antiviral activity against HIV-1 Bal-R5 infected in human CEMx174 5.25M7 cells assessed as inhibition of viral growth pretreated with virus for 30 mins followed by infection with cells incubated for 72 hrs by ELISA", "type": "functional, organism-based", "settings": "Human immunodeficiency virus 1, Bal-R5, CEMx174 5.25M7"}, "[13]": {"molecular_target": "chymotrypsin (Homo sapiens, UniProt P17538+P40313+Q6GPI1+Q99895)", "experiment": "Proteolytic stability assessed as Chymotrypsin (unknown origin) mediated compound degradation by measuring parent compound remaining incubated for 2 hrs by LC-MS/MS analysis", "type": "ADME, protein assay", "settings": "read-out: Stability"}, "[14]": {"experiment": "Elimination half life in Sprague-Dawley rat at 10 mg/kg,iv administration measured upto 9 days by LC-MS/MS analysis", "type": "ADME, organism-based", "settings": "in vivo, time < 9 day, read-out: beta t1/2"}, "[15]": {"tested_on": "proteinase K", "experiment": "Proteolytic stability assessed as proteinase K (unknown origin) mediated compound degradation by measuring parent compound remaining incubated for 4 hrs by LC-MS/MS analysis", "type": "ADME", "settings": "human, read-out: Stability"}, "[16]": {"tested_on": "Human immunodeficiency virus 1", "experiment": "Antiviral activity against T20-resistant HIV-1 NL4-3 harboring […] N38A and N42T mutant infected in human MT2 cells assessed as inhibition of viral growth pretreated with virus for 30 mins followed by infection with cells incubated for 72 hrs by ELISA", "type": "functional, organism-based"}, "[17]": {"experiment": "Toxicity in BALB/c mouse assessed as histopathological change in liver at 100 mg/kg,iv administration measured after 14 days by hematoxylin and eosin staining based assay", "type": "organism-based", "settings": "in vivo, 336 h, time 14 day"}, "[18]": {"tested_on": "Human immunodeficiency virus 1", "experiment": "Antiviral activity against T20-resistant HIV-1 NL4-3 harboring […] N42T and N43K mutant infected in human MT2 cells assessed as inhibition of viral growth pretreated with virus for 30 mins followed by infection with cells incubated for 72 hrs by ELISA", "type": "functional, organism-based"}, "[19]": {"experiment": "Toxicity in Sprague-Dawley rat assessed as change in body weight at 50 mg/kg,iv administration measured upto 14 days", "type": "organism-based", "settings": "in vivo, 336 h, time < 14 day"}, "[20]": {"tested_on": "ACH-2 cell line", "experiment": "Cytotoxicity against chidamide non-reactivated human ACH-2 cell line infected with latent HIV-1 assessed as reduction in cell viability at 1.25 to 5 uM", "type": "functional, cell-based", "settings": "dose 1.25-5 µM"}, "[21]": {"experiment": "Proteolytic stability assessed as Pepsin (unknown origin) mediated compound degradation incubated for 4 hrs by LC-MS/MS analysis", "type": "ADME", "settings": "human"}, "[22]": {"experiment": "Toxicity in Sprague-Dawley rat assessed as histopathological change in liver at 50 mg/kg,iv administration measured after 14 days by hematoxylin and eosin staining based assay", "type": "organism-based", "settings": "in vivo, 336 h, time 14 day"}, "[23]": {"experiment": "Biodistribution in Sprague-Dawley rat lymph node assessed as fold increase in AUC at 1 mg/kg,iv administration measured after 12 days by LC-MS/MS analysis", "type": "ADME, organism-based", "settings": "in vivo, 288 h, time 12 day"}, "[24]": {"tested_on": "Human immunodeficiency virus 1", "experiment": "Antiviral activity against HIV-1 IIIB infected in human MT2 cells assessed as inhibition of viral growth at 5 uM preincubation of compound with 10% HSA", "type": "functional, organism-based"}, "[25]": {"experiment": "Toxicity in Sprague-Dawley rat assessed as necrosis in liver at 50 mg/kg,iv administration measured after 14 days by hematoxylin and eosin staining based assay", "type": "organism-based", "settings": "in vivo, 336 h, time 14 day"}, "[26]": {"experiment": "Toxicity in BALB/c mouse assessed as histopathological change in liver at 20 mg/kg,iv administration measured after 14 days by hematoxylin and eosin staining based assay", "type": "organism-based", "settings": "in vivo, 336 h, time 14 day"}, "[27]": {"tested_on": "ACH-2 cell line", "experiment": "Cytotoxicity against chidamide reactivated human ACH-2 cell line infected with latent HIV-1 assessed as reduction in cell viability at 1.25 to 5 uM", "type": "functional, cell-based", "settings": "dose 1.25-5 µM"}, "[28]": {"experiment": "Volume of distribution at steady state in Sprague-Dawley rat at 1 mg/kg,iv administration measured upto 9 days by LC-MS/MS analysis", "type": "ADME, organism-based", "settings": "in vivo, time < 9 day, read-out: Vdss"}, "[29]": {"experiment": "Stability in human liver microsomes in presence of NADPH by LC-MS/MS analysis", "type": "ADME, Microsome"}, "[30]": {"experiment": "Toxicity in Sprague-Dawley rat assessed as change in serum creatinine level at 50 mg/kg,iv administration measured upto 6 days", "type": "organism-based", "settings": "in vivo, 144 h, time < 6 day"}, "[31]": {"experiment": "Toxicity in male BALB/c mouse assessed as change in body weight at 20 mg/kg,iv administration measured upto 14 days", "type": "organism-based", "settings": "in vivo, 336 h, time < 14 day"}, "[32]": {"experiment": "Toxicity in BALB/c mouse assessed as histopathological change in kidney at 20 mg/kg,iv administration measured after 14 days by hematoxylin and eosin staining based assay", "type": "organism-based", "settings": "in vivo, 336 h, time 14 day"}, "[33]": {"experiment": "Stability in rat plasma assessed as parent compound remaining at 1 ug/ml incubated for 1 hr by LC-MS/MS analysis", "type": "ADME, cell-free", "settings": "at 1 µg/mL, read-out: Stability"}, "[34]": {"experiment": "Biodistribution in Sprague-Dawley rat brain at 1 mg/kg,iv administration measured upto 12 days by LC-MS/MS analysis", "type": "ADME, organism-based", "settings": "in vivo, 288 h, time < 12 day"}, "[35]": {"experiment": "Drug concentration in Sprague-Dawley rat plasma at 50 mg/kg,po administrated for 15 hrs by LC-MS/MS analysis", "type": "ADME, organism-based", "settings": "in vivo"}, "[36]": {"experiment": "Toxicity in BALB/c mouse assessed as change in serum creatinine level at 20 mg/kg,iv administration measured upto 6 days", "type": "organism-based", "settings": "in vivo, 144 h, time < 6 day"}, "[37]": {"tested_on": "Human immunodeficiency virus 1", "experiment": "Antiviral activity against T20-resistant HIV-1 NL4-3 harboring […] N38A and N42T mutant assessed as reduction in viral growth by measuring p24 antigen level incubated for 2 hrs by ELISA", "type": "functional, organism-based"}, "[38]": {"experiment": "Toxicity in BALB/c mouse assessed as change in serum creatinine level at 100 mg/kg,iv administration measured upto 6 days", "type": "organism-based", "settings": "in vivo, 144 h, time < 6 day"}},
  "note": "The source made the active and inactive calls. The rule behind the calls is not given here. Bridge positions count the residues as written; N and C are the ends. Square brackets hold non-standard residues; d marks the D form. Peptide text beside a SMILES is read from it. S5 = C=CCCC[C@](C)(N)C(=O)O",
  "data": [
    {"smiles": "CC(=O)NCC(=O)N[C@@]1(C)CCC/C=C\\CCC[C@@](C)(C(=O)N[C@@H](Cc2ccc(O)cc2)C(=O)N[C@@H](CC(C)C)C(=O)N[C@@]2(C)CCC/C=C\\CCC[C@@](C)(C(=O)N[C@@H](Cc3ccc(O)cc3)C(=O)N[C@@H](Cc3c[nH]c4ccccc34)C(N)=O)NC(=O)[C@H](CC(C)C)NC(=O)[C@H](CC(C)C)NC(=O)[C@H](CC(N)=O)NC2=O)NC(=O)[C@H](CC(C)C)NC(=O)[C@H](C)NC(=O)[C@H](CCC(=O)O)NC1=O", "note": "(Ac-G[S5]EAL[S5]YL[S5]NLL[S5]YW-NH2; staple (Z) 2-6, 9-13)", "values": [
      {"measurement": "Drug uptake", "setting": "[1]", "result": "Active"},
      {"measurement": "Activity", "setting": "[2]", "result": "Dose-Dependent Effect"},
      {"measurement": "Activity", "setting": "[3]", "result": "Non-Toxic"},
      {"measurement": "Activity", "setting": "[4]", "result": "Non-Toxic"},
      {"measurement": "K", "setting": "[5]", "result": "2.77 10^5/M"},
      {"measurement": "fraction unbound", "setting": "[6]", "result": 0.182},
      {"measurement": "EC50", "setting": "[7]", "result": 36700, "unit": "nM"},
      {"measurement": "Vdss", "setting": "[8]", "result": 3.6489, "unit": "L/kg"},
      {"measurement": "EC50", "setting": "[9]", "result": 44.4, "unit": "nM"},
      {"measurement": "Activity", "setting": "[10]", "result": "Non-Toxic"},
      {"measurement": "Papp at 5 µM", "setting": "[11]", "result": "< 0.02", "unit": "×10⁻⁶ cm/s"},
      {"measurement": "IC50", "setting": "[12]", "result": 180, "unit": "nM"},
      {"measurement": "remaining at 2 h", "setting": "[13]", "result": "> 56.8", "unit": "%"},
      {"measurement": "half-life", "setting": "[14]", "result": "> 70", "unit": "h"},
      {"measurement": "remaining at 4 h", "setting": "[15]", "result": 89.6, "unit": "%"},
      {"measurement": "IC50", "setting": "[16]", "result": 12.2, "unit": "nM"},
      {"measurement": "Activity", "setting": "[17]", "result": "Non-Toxic"},
      {"measurement": "IC50", "setting": "[18]", "result": 124, "unit": "nM"},
      {"measurement": "Activity", "setting": "[19]", "result": "Non-Toxic"},
      {"measurement": "Activity", "setting": "[20]", "result": "inactive"},
      {"measurement": "Stability", "setting": "[21]", "result": "Stable"},
      {"measurement": "Activity", "setting": "[22]", "result": "Non-Toxic"},
      {"measurement": "fold change (FC)", "setting": "[23]", "result": 10},
      {"measurement": "Activity", "setting": "[24]", "result": "Active"},
      {"measurement": "Activity", "setting": "[25]", "result": "Non-Toxic"},
      {"measurement": "Activity", "setting": "[26]", "result": "Non-Toxic"},
      {"measurement": "Activity", "setting": "[27]", "result": "Active"},
      {"measurement": "Vd", "setting": "[28]", "result": 2.32, "unit": "L/kg"},
      {"measurement": "Stability", "setting": "[29]", "result": "Stable"},
      {"measurement": "Activity", "setting": "[30]", "result": "Non-Toxic"},
      {"measurement": "Activity", "setting": "[31]", "result": "Non-Toxic"},
      {"measurement": "Activity", "setting": "[32]", "result": "Non-Toxic"},
      {"measurement": "remaining at 1 h, 1 ug/ml", "setting": "[33]", "result": "> 99", "unit": "%"},
      {"measurement": "Drug uptake", "setting": "[34]", "result": "Active"},
      {"measurement": "Drug uptake", "setting": "[35]", "result": "Active"},
      {"measurement": "Activity", "setting": "[36]", "result": "Non-Toxic"},
      {"measurement": "EC50", "setting": "[37]", "result": 23.1, "unit": "nM"},
      {"measurement": "Activity", "setting": "[38]", "result": "Non-Toxic"}
    ]}
  ]
}
